The assay addresses Factor XIa (Homo sapiens (Human), UniProt P03951). As to the kind of experiment: Factor XIa enzyme inhibition assay (dose response, fluorogenic AMC substrate). Type of assay: biochemical. The following applies: read-out: hFXIa IC50. The essentials: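 Human FXIa at 0.25 nM final with 50 μM final PyroGlu-Pro-Arg-AMC in 20 mM Hepes pH 7.4, 150 mM NaCl, 0.02% Tween 20. Two-fold serial compound dilutions; fluorescence read every minute for 30 min at 30° C. IC50 from a four-parameter Hill fit.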

Usually IC50 stands for the concentration that inhibits the measured activity by half.

Each structure is given as a SMILES string.

Sequence of Factor XIa (P03951 388-625): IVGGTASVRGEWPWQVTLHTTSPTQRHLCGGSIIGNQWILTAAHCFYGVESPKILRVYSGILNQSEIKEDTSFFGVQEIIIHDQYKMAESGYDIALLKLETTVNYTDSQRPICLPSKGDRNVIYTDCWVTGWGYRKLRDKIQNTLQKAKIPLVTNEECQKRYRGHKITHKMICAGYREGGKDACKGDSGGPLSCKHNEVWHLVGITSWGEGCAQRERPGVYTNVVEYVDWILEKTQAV
Sequence of Factor XIa (P03951 19-387 partner): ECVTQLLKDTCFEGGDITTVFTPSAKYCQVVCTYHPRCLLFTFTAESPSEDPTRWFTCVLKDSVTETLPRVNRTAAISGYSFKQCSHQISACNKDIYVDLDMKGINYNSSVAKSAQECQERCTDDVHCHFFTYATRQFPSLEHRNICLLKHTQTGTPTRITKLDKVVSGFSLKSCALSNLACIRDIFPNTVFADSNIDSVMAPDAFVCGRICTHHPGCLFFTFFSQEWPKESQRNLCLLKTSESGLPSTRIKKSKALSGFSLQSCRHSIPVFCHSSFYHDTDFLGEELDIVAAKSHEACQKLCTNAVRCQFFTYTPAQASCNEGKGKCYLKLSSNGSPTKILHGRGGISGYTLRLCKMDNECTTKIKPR

For `CC[C@@H](NC(=O)N1C(=O)[C@H](Cc2cc(C)nc(N)c2)[C@H]1C(=O)N(C)c1cnn(C)c1)c1cc(C)ccc1F` [Compound 1-177, (2S,3R)-3-((2-amino-6-methylpyridin-4-yl)methyl)-N2-(1-methyl-1H-pyrazol-4-yl)-N1-((R)-1-(2-fluoro-5-methylphenyl)propyl)-N2-methyl-4-oxoazetidine-1,2-dicarboxamide], the IC50 lay within 10 to 100 nM. With `CC[C@@H](NC(=O)N1C(=O)[C@H](Cc2cc(C)nc(N)c2)[C@H]1C(=O)N(C)c1cnn(C)c1)c1cc(F)ccc1C` [Compound 1-178, (2S,3R)-3-((2-amino-6-methylpyridin-4-yl)methyl)-N2-(1-methyl-1H-pyrazol-4-yl)-N1-((R)-1-(5-fluoro-2-methylphenyl)propyl)-N2-methyl-4-oxoazetidine-1,2-dicarboxamide] the figure was less than 10 nM; with `CC[C@@H](NC(=O)N1C(=O)[C@H](Cc2cc(C)nc(N)c2)[C@H]1C(=O)N(C)c1cnn(C)c1)c1ccc(C)cc1C` [Compound 1-179, (2S,3R)-3-((2-amino-6-methylpyridin-4-yl)methyl)-N2-(1-methyl-1H-pyrazol-4-yl)-N1-((R)-1-(2,4-dimethylphenyl)propyl)-N2-methyl-4-oxoazetidine-1,2-dicarboxamide], less than 10 nM. In the case of `CC[C@@H](NC(=O)N1C(=O)[C@H](Cc2cc(C)nc(N)c2)[C@H]1C(=O)N(C)c1cnn(C)c1)c1ccc(F)cc1C` [Compound 1-180, (2S,3R)-3-((2-amino-6-methylpyridin-4-yl)methyl)-N2-(1-methyl-1H-pyrazol-4-yl)-N1-((R)-1-(4-fluoro-2-methylphenyl)propyl)-N2-methyl-4-oxoazetidine-1,2-dicarboxamide] it was 10 to 100 nM; in that of `CC[C@@H](NC(=O)N1C(=O)[C@H](Cc2cc(C)nc(N)c2)[C@H]1C(=O)N(C)c1cnn(C)c1)c1ccc(C)cc1` [Compound 1-181, (2S,3R)-3-((2-amino-6-methylpyridin-4-yl)methyl)-N2-(1-methyl-1H-pyrazol-4-yl)-N1-((R)-1-(4-methylphenyl)propyl)-N2-methyl-4-oxoazetidine-1,2-dicarboxamide], 10 to 100 nM. In the case of `CC[C@@H](NC(=O)N1C(=O)[C@H](Cc2cc(C)nc(N)c2)[C@H]1C(=O)N(C)c1cnn(C)c1)c1ccc(C)cc1F` [Compound 1-183, (2S,3R)-3-((2-amino-6-methylpyridin-4-yl)methyl)-N2-(1-methyl-1H-pyrazol-4-yl)-N1-((R)-1-(2-fluoro-4-methylphenyl)propyl)-N2-methyl-4-oxoazetidine-1,2-dicarboxamide] it was less than 10 nM.

Take `CC[C@@H](NC(=O)N1C(=O)[C@H](Cc2cc(C)nc(N)c2)[C@H]1C(=O)N(C)c1nncs1)c1ccccc1` [Compound 1-186, (2S,3R)-3-((2-amino-6-methylpyridin-4-yl)methyl)-N2-(1,3,4-thiadiazol-2-yl)-N1-((R)-1-phenylpropyl)-N2-methyl-4-oxoazetidine-1,2-dicarboxamide]: the IC50 is less than 10 nM. Take `CC[C@@H](NC(=O)N1C(=O)[C@H](Cc2cc(C)nc(N)c2)[C@H]1C(=O)N(C)c1nnco1)c1ccccc1` [Compound 1-187, (2S,3R)-3-((2-amino-6-methylpyridin-4-yl)methyl)-N2-(1,3,4-oxadiazol-2-yl)-N1-((R)-1-phenylpropyl)-N2-methyl-4-oxoazetidine-1,2-dicarboxamide]: the IC50 is less than 10 nM.

In the case of `CC[C@@H](NC(=O)N1C(=O)[C@H](Cc2cc(C)nc(N)c2)[C@H]1C(=O)N(C)c1cnn(C)c1)c1ccc(F)cc1F` [Compound 1-188, (2S,3R)-3-((2-amino-6-methylpyridin-4-yl)methyl)-N2-(1-methyl-1H-pyrazol-4-yl)-N1-((R)-1-(2,4-difluorophenyl)propyl)-N2-methyl-4-oxoazetidine-1,2-dicarboxamide], the IC50 is 10 to 100 nM. With `CC[C@@H](NC(=O)N1C(=O)[C@H](Cc2cc(C)nc(N)c2)[C@H]1C(=O)N(C)c1cnn(C)c1)c1cc(F)cc(F)c1` [Compound 1-189, (2S,3R)-3-((2-amino-6-methylpyridin-4-yl)methyl)-N2-(1-methyl-1H-pyrazol-4-yl)-N1-((R)-1-(3,5-difluorophenyl)propyl)-N2-methyl-4-oxoazetidine-1,2-dicarboxamide] the figure was 10 to 100 nM; with `CC[C@@H](NC(=O)N1C(=O)[C@H](Cc2cc(C)nc(N)c2)[C@H]1C(=O)N(C)c1cnn(C)c1)c1cccc(C)c1F` [Compound 1-190, (2S,3R)-3-((2-amino-6-methylpyridin-4-yl)methyl)-N2-(1-methyl-1H-pyrazol-4-yl)-N1-((R)-1-(2-fluoro-3-methylphenyl)propyl)-N2-methyl-4-oxoazetidine-1,2-dicarboxamide], less than 10 nM. With `CC[C@@H](NC(=O)N1C(=O)[C@H](Cc2cc(C)nc(N)c2)[C@H]1C(=O)N(C)c1cnn(C)c1)c1cccc(F)c1C` [Compound 1-191, (2S,3R)-3-((2-amino-6-methylpyridin-4-yl)methyl)-N2-(1-methyl-1H-pyrazol-4-yl)-N1-((R)-1-(3-fluoro-2-methylphenyl)propyl)-N2-methyl-4-oxoazetidine-1,2-dicarboxamide] the figure was 10 to 100 nM; with `CC[C@@H](NC(=O)N1C(=O)[C@H](Cc2ccnc(N)c2)[C@H]1C(=O)N(C)c1nccn1C)c1ccc(C)c(F)c1F` [Compound 1-192, (2S,3R)-3-((2-aminopyridin-4-yl)methyl)-N2-(1-methyl-1H-imidazol-2-yl)-N1-((R)-1-(2,3-difluoro-4-methylphenyl)propyl)-N2-methyl-4-oxoazetidine-1,2-dicarboxamide], less than 10 nM; with `CC[C@@H](NC(=O)N1C(=O)[C@H](Cc2ccnc(N)c2)[C@H]1C(=O)N(C)c1nccn1C)c1cc(C)c(F)c(C)c1` [Compound 1-195, (2S,3R)-3-((2-aminopyridin-4-yl)methyl)-N2-(1-methyl-1H-imidazol-2-yl)-N1-((R)-1-(3,5-dimethyl-4-fluorophenyl)propyl)-N2-methyl-4-oxoazetidine-1,2-dicarboxamide], less than 10 nM. In the case of `CC[C@@H](NC(=O)N1C(=O)[C@H](Cc2ccnc(N)c2)[C@H]1C(=O)N(C)c1nccn1C)c1ccc(C)c(F)c1C` [Compound 1-196, (2S,3R)-3-((2-aminopyridin-4-yl)methyl)-N2-(1-methyl-1H-imidazol-2-yl)-N1-((R)-1-(2,4-dimethyl-3-fluorophenyl)propyl)-N2-methyl-4-oxoazetidine-1,2-dicarboxamide] it was less than 10 nM.

As to `CC[C@@H](NC(=O)N1C(=O)[C@H](Cc2ccnc(N)c2)[C@H]1C(=O)N(C)c1ccn(C)n1)c1ccc(C)c(F)c1F` [Compound 1-201, (2S,3R)-3-((2-aminopyridin-4-yl)methyl)-N2-(1-methyl-1H-pyrazol-3-yl)-N1-((R)-1-(2,3-difluoro-4-methylphenyl)propyl)-N2-methyl-4-oxoazetidine-1,2-dicarboxamide], the IC50 was less than 10 nM.

Turning to `CC[C@@H](NC(=O)N1C(=O)[C@H](Cc2ccnc(N)c2)[C@H]1C(=O)N(C)c1ccnn1C)c1ccc(C)c(F)c1F` [Compound 1-202, (2S,3R)-3-((2-aminopyridin-4-yl)methyl)-N2-(1-methyl-1H-pyrazol-5-yl)-N1-((R)-1-(2,3-difluoro-4-methylphenyl)propyl)-N2-methyl-4-oxoazetidine-1,2-dicarboxamide], the IC50 is less than 10 nM. With `CC[C@@H](NC(=O)N1C(=O)[C@H](Cc2ccnc(N)c2)[C@H]1C(=O)N(C)c1ccn(C)n1)c1cc(C)c(F)c(C)c1` [Compound 1-203, (2S,3R)-3-((2-aminopyridin-4-yl)methyl)-N2-(1-methyl-1H-pyrazol-3-yl)-N1-((R)-1-(3,5-dimethyl-4-fluorophenyl)propyl)-N2-methyl-4-oxoazetidine-1,2-dicarboxamide] the figure was less than 10 nM. Regarding `CC[C@@H](NC(=O)N1C(=O)[C@H](Cc2ccnc(N)c2)[C@H]1C(=O)N(C)c1ccnn1C)c1cc(F)c(F)c(F)c1` [Compound 1-204, (2S,3R)-3-((2-aminopyridin-4-yl)methyl)-N2-(1-methyl-1H-pyrazol-5-yl)-N1-((R)-1-(3,4,5-trifluorophenyl)propyl)-N2-methyl-4-oxoazetidine-1,2-dicarboxamide], the IC50 is less than 10 nM. Regarding `CC[C@@H](NC(=O)N1C(=O)[C@H](Cc2ccnc(N)c2)[C@H]1C(=O)N(C)c1ccnn1C)c1cc(C)c(F)c(C)c1` [Compound 1-205, (2S,3R)-3-((2-aminopyridin-4-yl)methyl)-N2-(1-methyl-1H-pyrazol-5-yl)-N1-((R)-1-(3,5-dimethyl-4-fluorophenyl)propyl)-N2-methyl-4-oxoazetidine-1,2-dicarboxamide], the half-inhibitory concentration (IC50) is less than 10 nM. On to `CC[C@@H](NC(=O)N1C(=O)[C@H](Cc2ccnc(N)c2)[C@H]1C(=O)N(C)c1cnn(C)c1)c1cc(C)c(F)c(C)c1` [Compound 1-206, (2S,3R)-3-((2-aminopyridin-4-yl)methyl)-N2-(1-methyl-1H-pyrazol-4-yl)-N1-((R)-1-(3,5-dimethyl-4-fluorophenyl)propyl)-N2-methyl-4-oxoazetidine-1,2-dicarboxamide], for which the 50% inhibitory concentration (IC50) is less than 10 nM. As to `CC[C@@H](NC(=O)N1C(=O)[C@H](Cc2ccnc(N)c2)[C@H]1C(=O)N(C)c1cnn(C)c1)c1ccc(F)c(C)c1F` [Compound 1-207, (2S,3R)-3-((2-aminopyridin-4-yl)methyl)-N2-(1-methyl-1H-pyrazol-4-yl)-N1-((R)-1-(2,4-difluoro-3-methylphenyl)propyl)-N2-methyl-4-oxoazetidine-1,2-dicarboxamide], the concentration for half-maximal inhibition (IC50) was less than 10 nM. With `CC[C@@H](NC(=O)N1C(=O)[C@H](Cc2ccnc(N)c2)[C@H]1C(=O)N(C)c1cnn(C)c1)c1ccc(C)c(F)c1F` [Compound 1-208, (2S,3R)-3-((2-aminopyridin-4-yl)methyl)-N2-(1-methyl-1H-pyrazol-4-yl)-N1-((R)-1-(2,3-difluoro-4-methylphenyl)propyl)-N2-methyl-4-oxoazetidine-1,2-dicarboxamide] the figure was less than 10 nM.

These data come from patent publication US11691962B2 (eXIthera Pharmaceuticals, Inc., priority 2018, dated 2023).
